# Laboratory results taken from patent US8293729B2 (Boehringer Ingelheim International GmbH, priority 2009, dated 2012).
# Target: T1, human GPR119 receptor (Homo sapiens, UniProt Q8TDV5, S329A/T327A)
# T1 construct: N-terminal leader […]; expressed in transfected cells
# T1 sequence (Q8TDV5 with tags, fused parts or gaps T327A/S329A): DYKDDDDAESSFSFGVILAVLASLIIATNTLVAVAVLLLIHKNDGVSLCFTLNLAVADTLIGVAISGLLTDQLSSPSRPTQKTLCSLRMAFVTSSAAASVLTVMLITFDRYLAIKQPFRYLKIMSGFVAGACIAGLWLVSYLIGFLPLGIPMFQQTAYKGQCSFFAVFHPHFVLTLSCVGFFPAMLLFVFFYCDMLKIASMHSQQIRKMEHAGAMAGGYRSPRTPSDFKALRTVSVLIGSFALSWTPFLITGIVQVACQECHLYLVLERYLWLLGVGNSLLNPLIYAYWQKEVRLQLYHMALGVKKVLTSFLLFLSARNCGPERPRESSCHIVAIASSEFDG
# Assay: cAMP assay (LANCE cAMP-384) in HEK293 cells stably expressing mutant human GPR119 receptor
# Assay type: cell-based
# Settings: HEK293, 20 min; at 10 μM; printed in EC50 column of the 34th table; read-out: stimulation in % at 10 μM
# Summary of the method: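 Agonist EC50 came from nonlinear regression over 12 concentrations (30 μM–100 pM), with % stimulation at 10 μM where no EC50 was obtained. Cells: stable HEK293 with mutant human GPR119 (T327A/S329A), 20 min compound at 37° C; cAMP read by LANCE kit with standard curve.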
row,Compound,activation at 10 µM [%]
1,CC(C)OC(=O)CN1CCC(ON=C2CCN(c3ccc(S(C)(=O)=O)cc3F)CC2)CC1 [Example 65-3],64

# Same assay, conditions: HEK293, 20 min; at 10 μM; printed in EC50 column of the 36th table; read-out: stimulation in % at 10 μM
row,Compound,activation at 10 µM [%]
1,CS(=O)(=O)c1ccc(N2CCC(=NOC3CCN(Cc4nccs4)CC3)CC2)c(F)c1 [Example 66-6],63
2,COc1ccccc1CN1CCC(ON=C2CCN(c3ccc(S(C)(=O)=O)cc3F)CC2)CC1 [Example 66-18],66
3,CC(C)CN1CCC(ON=C2CCN(c3ccc(S(C)(=O)=O)cc3F)CC2)CC1 [Example 66-21],64
4,CC(CCN1CCC(ON=C2CCN(c3ccc(S(C)(=O)=O)cc3F)CC2)CC1)c1ccccc1 (stereo not shown) [Example 66-24],53

# Same assay, conditions: the 33rd table; read-out: EC50
row,Compound,EC50 [nM]
1,COC(=O)C(C)(C)COC(=O)N1CCC(ON=C2CCN(c3ccc(S(C)(=O)=O)cc3F)CC2)CC1 [Example 64-30],277
2,CCOC(=O)C1CC1COC(=O)N1CCC(ON=C2CCN(c3ccc(S(C)(=O)=O)cc3F)CC2)CC1 (stereo not shown) [Example 64-31],107
3,CC(C)N(CCOC(=O)N1CCC(ON=C2CCN(c3ccc(S(C)(=O)=O)cc3F)CC2)CC1)C(C)C [Example 64-32],> 10000
4,CS(=O)(=O)c1ccc(N2CCC(=NOC3CCN(C(=O)OC4CNC4)CC3)CC2)c(F)c1 [Example 64-33],> 10000
5,CC(N)COC(=O)N1CCC(ON=C2CCN(c3ccc(S(C)(=O)=O)cc3F)CC2)CC1 (stereo not shown) [Example 64-34],> 10000
6,CC(N)COC(=O)N1CCC(ON=C2CCN(c3ccc(S(C)(=O)=O)cc3F)CC2)CC1 (stereo not shown) [Example 64-35],> 10000
7,CS(=O)(=O)c1ccc(N2CCC(=NOC3CCN(C(=O)OC4CCNC4)CC3)CC2)c(F)c1 (stereo not shown) [Example 64-36],> 10000
8,CC(C)[C@H](N)COC(=O)N1CCC(ON=C2CCN(c3ccc(S(C)(=O)=O)cc3F)CC2)CC1 [Example 64-37],> 10000
9,CS(=O)(=O)c1ccc(N2CCC(=NOC3CCN(C(=O)OCC4CNCCO4)CC3)CC2)c(F)c1 (stereo not shown) [Example 64-38],> 10000
10,CS(=O)(=O)c1ccc(N2CCC(=NOC3CCN(C(=O)OCCC4CC4)CC3)CC2)c(F)c1 [Example 64-39],127
11,CC(C)CCOC(=O)N1CCC(ON=C2CCN(c3ccc(S(C)(=O)=O)cc3F)CC2)CC1 [Example 64-40],89
12,CC(C)(C)CCOC(=O)N1CCC(ON=C2CCN(c3ccc(S(C)(=O)=O)cc3F)CC2)CC1 [Example 64-41],202
13,CS(=O)(=O)c1ccc(N2CCC(=NOC3CCN(C(=O)OCCC4CCCCC4)CC3)CC2)c(F)c1 [Example 64-42],350
14,CS(=O)(=O)c1ccc(N2CCC(=NOC3CCN(C(=O)OCCN4CCOCC4)CC3)CC2)c(F)c1 [Example 64-43],> 10000
15,CC(C)[C@@H](N)COC(=O)N1CCC(ON=C2CCN(c3ccc(S(C)(=O)=O)cc3F)CC2)CC1 [Example 64-44],> 10000
16,CCCCOC(=O)N1CCC(ON=C2CCN(c3ccc(S(C)(=O)=O)cc3F)CC2)CC1 [Example 64-45],54
17,CCC(C)COC(=O)N1CCC(ON=C2CCN(c3ccc(S(C)(=O)=O)cc3F)CC2)CC1 (stereo not shown) [Example 64-47],43
18,CC[C@H](C)COC(=O)N1CCC(ON=C2CCN(c3ccc(S(C)(=O)=O)cc3F)CC2)CC1 [Example 64-48],54
19,CCC(CC)COC(=O)N1CCC(ON=C2CCN(c3ccc(S(C)(=O)=O)cc3F)CC2)CC1 [Example 64-49],54

# Same assay, conditions: the 34th table, compounds 65-1 to 65-24; read-out: EC50
row,Compound,EC50 [nM]
1,"CCN(CC)C(=O)CN1CCC(ON=C2CCN(c3ccc(S(C)(=O)=O)cc3F)CC2)CC1 [Example 65-1, N,N-Diethyl-2-{4-[1-(2-fluoro-4-methanesulfonyl-phenyl)-piperidin-4-ylideneaminooxy]-piperidin-1-yl}-acetamide]",> 10000
2,CS(=O)(=O)c1ccc(N2CCC(=NOC3CCN(CC(=O)Nc4ccccc4)CC3)CC2)c(F)c1 [Example 65-2],> 10000
3,CC(C)NC(=O)CN1CCC(ON=C2CCN(c3ccc(S(C)(=O)=O)cc3F)CC2)CC1 [Example 65-4],> 10000
4,CS(=O)(=O)c1ccc(N2CCC(=NOC3CCN(CC(=O)OCc4ccccc4)CC3)CC2)c(F)c1 [Example 65-5],3380
5,CS(=O)(=O)c1ccc(N2CCC(=NOC3CCN(CC(=O)Oc4ccccc4)CC3)CC2)c(F)c1 [Example 65-6],854
6,CC(C)(C)COC(=O)N1CCC(ON=C2CCN(c3ccc(S(C)(=O)=O)cc3F)CC2)CC1 [Example 65-7],57
7,CC(C)NC(=O)N1CCC(ON=C2CCN(c3ccc(S(C)(=O)=O)cc3F)CC2)CC1 [Example 65-8],> 10000
8,CS(=O)(=O)c1ccc(N2CCC(=NOC3CCN(C(=S)NC4CCCCC4)CC3)CC2)c(F)c1 [Example 65-9],1800
9,CS(=O)(=O)c1ccc(N2CCC(=NOC3CCN(C(=S)NC4CC4)CC3)CC2)c(F)c1 [Example 65-10],> 10000
10,CC(C)(C)NC(=O)N1CCC(ON=C2CCN(c3ccc(S(C)(=O)=O)cc3F)CC2)CC1 [Example 65-11],1040
11,CS(=O)(=O)c1ccc(N2CCC(=NOC3CCN(C(=O)Oc4ccccc4)CC3)CC2)c(F)c1 [Example 65-12],57
12,CC(C)COC(=O)N1CCC(ON=C2CCN(c3ccc(S(C)(=O)=O)cc3F)CC2)CC1 [Example 65-13],82
13,CS(=O)(=O)c1ccc(N2CCC(=NOC3CCN(C(=O)OCc4ccccc4)CC3)CC2)c(F)c1 [Example 65-14],153
14,C=C(C)OC(=O)N1CCC(ON=C2CCN(c3ccc(S(C)(=O)=O)cc3F)CC2)CC1 [Example 65-15],64
15,CC(C)S(=O)(=O)N1CCC(ON=C2CCN(c3ccc(S(C)(=O)=O)cc3F)CC2)CC1 [Example 65-16],> 10000
16,CS(=O)(=O)c1ccc(N2CCC(=NOC3CCN(C(=O)Nc4ccccc4)CC3)CC2)c(F)c1 [Example 65-17],2040
17,CS(=O)(=O)c1ccc(N2CCC(=NOC3CCN(S(=O)(=O)c4ccccc4)CC3)CC2)c(F)c1 [Example 65-18],1100
18,CS(=O)(=O)c1ccc(N2CCC(=NOC3CCN(C(=O)c4ccccc4)CC3)CC2)c(F)c1 [Example 65-21],747
19,CS(=O)(=O)c1ccc(N2CCC(=NOC3CCN(C(=O)c4ccc(F)cc4)CC3)CC2)c(F)c1 [Example 65-22],132

# Same assay, conditions: the 35th table, compounds 65-25 to 65-36; read-out: EC50
row,Compound,EC50 [nM]
1,CS(=O)(=O)c1cc(F)c(N2CCC(=NOC3CCN(C(=O)Cc4ccccc4)CC3)CC2)cc1F [Example 65-28],240

# Same assay, conditions: the 36th table, compounds 66-1 to 66-51; read-out: EC50
row,Compound,EC50 [nM]
1,"Cn1cccc1CN1CCC(ON=C2CCN(c3ccc(S(C)(=O)=O)cc3F)CC2)CC1 [Example 66-1, 1-(2-Fluoro-4-methanesulfonyl-phenyl)-piperidin-4-one O-[1-(1-methyl-1H-Pyrrol-2-ylmethyl)-piperidin-4-yl]-oxime]",> 10000
2,CS(=O)(=O)c1ccc(N2CCC(=NOC3CCN(Cc4ncc[nH]4)CC3)CC2)c(F)c1 [Example 66-2],> 10000
3,CS(=O)(=O)c1ccc(N2CCC(=NOC3CCN(Cc4ccccn4)CC3)CC2)c(F)c1 [Example 66-3],> 10000
4,CS(=O)(=O)c1ccc(N2CCC(=NOC3CCN(Cc4ccncc4)CC3)CC2)c(F)c1 [Example 66-4],> 10000
5,Cn1cc(Cl)c(CN2CCC(ON=C3CCN(c4ccc(S(C)(=O)=O)cc4F)CC3)CC2)n1 [Example 66-5],> 10000
6,Cc1c(CN2CCC(ON=C3CCN(c4ccc(S(C)(=O)=O)cc4F)CC3)CC2)cnn1C [Example 66-7],> 10000
7,Cc1nc(CN2CCC(ON=C3CCN(c4ccc(S(C)(=O)=O)cc4F)CC3)CC2)c[nH]1 [Example 66-8],> 10000
8,Cc1nc[nH]c1CN1CCC(ON=C2CCN(c3ccc(S(C)(=O)=O)cc3F)CC2)CC1 [Example 66-9],> 10000
9,Cn1cc(CN2CCC(ON=C3CCN(c4ccc(S(C)(=O)=O)cc4F)CC3)CC2)cn1 [Example 66-10],> 10000
10,CS(=O)(=O)c1ccc(N2CCC(=NOC3CCN(Cc4cscn4)CC3)CC2)c(F)c1 [Example 66-11],> 10000
11,Cn1ccnc1CN1CCC(ON=C2CCN(c3ccc(S(C)(=O)=O)cc3F)CC2)CC1 [Example 66-12],> 10000
12,Cc1cc(CN2CCC(ON=C3CCN(c4ccc(S(C)(=O)=O)cc4F)CC3)CC2)n(C)n1 [Example 66-13],> 10000
13,Cc1nc(CN2CCC(ON=C3CCN(c4ccc(S(C)(=O)=O)cc4F)CC3)CC2)cs1 [Example 66-14],> 10000
14,CS(=O)(=O)c1ccc(N2CCC(=NOC3CCN(Cc4ccccc4)CC3)CC2)c(F)c1 [Example 66-15],982
15,CS(=O)(=O)c1ccc(N2CCC(=NOC3CCN(Cc4ccccc4F)CC3)CC2)c(F)c1 [Example 66-16],560
16,CS(=O)(=O)c1ccc(N2CCC(=NOC3CCN(Cc4ccccc4Cl)CC3)CC2)c(F)c1 [Example 66-17],661
17,CS(=O)(=O)c1ccc(N2CCC(=NOC3CCN(Cc4ccccc4C#N)CC3)CC2)c(F)c1 [Example 66-19],> 10000
18,CS(=O)(=O)c1ccc(N2CCC(=NOC3CCN(Cc4ncco4)CC3)CC2)c(F)c1 [Example 66-20],> 10000
19,CC(C)(C)CN1CCC(ON=C2CCN(c3ccc(S(C)(=O)=O)cc3F)CC2)CC1 [Example 66-22],1360
20,CC(C)CCN1CCC(ON=C2CCN(c3ccc(S(C)(=O)=O)cc3F)CC2)CC1 [Example 66-23],> 10000
